Data as given in patent US11708354B2, “2-benzopyrazinyl-n-heteroaryl-2-phenyl-acetamide compounds” (Hoffmann-La Roche Inc., priority 2016, dated 2023).
Counter-ions that a name gives are not always drawn.

System: Phospho-EGFR in H1975 cell line
Experiment: HTRF Phospo EGFR Assay (Cellular)
Format: cell-based
Conditions: Homo sapiens, NCI-H1975; H1975 cells, 6 hours compound incubation in starving medium, HTRF phospho-EGFR readout
Description: HTRF Phospo EGFR Assay (Cellular)
H1975 cell line was obtained from American Type Culture Collection (Manassas, Va., USA). Cells were maintained at 37° C., 5% CO2 in complete Media RPMI 1640 without phenol red containing 0.3 mg/ml glutamine, 100 IU/ml penicillin, and […] (Gibco) supplemented with 10% fetal bovine serum (FBS) (Gibco). Compounds were diluted into starving medium RPMI 1640 Media without phenol red containing 0.3 mg/ml glutamine, 100 IU/ml penicillin, and […] (Gibco).
Cells were cultured overnight in a 384-well white plate (8000 cells/well) using 8 μl of complete medium/well. Cells were washed two times with 20 μl of starving medium. Media was removed by tapping plates on tissue and subsequently 8 μl of fresh starving medium/well was added. Then 4 μl/well of the 3× compound solution, containing a half-log dilution series of the compound or DMSO in starving medium, were added to the cells. After 6 hours at 37° C., 5% CO2 cells were lysed by adding to the compound mix 4 μl/well of the supplemented lysis buffer, followed by incubation for 30 min at room temperature with shaking. Lysates were stored at −20° C. over night. The following day plates were thawed and 2 μl of anti-Phospho-EGFR Cryptate and 2 μl of anti-Phospho-EGFR-d2 antibody solutions prepared in the detection buffer were added. The plates were then incubated for at least 4 h at room temperature before reading the fluorescence emission at 620 and 665 nm using PHERAstar FX plate reader (BMG Labtech).

How did the IC50 turn out when `O=C(Nc1ccccn1)C(c1ccccc1)n1cc2ccccc2n1` (racemic) [Example 1, (2RS)-2-Indazol-2-yl-2-phenyl-N-(2-pyridyl)acetamide] was run?
The IC50 was 1760 nM.

How did the IC50 turn out when `O=C(Nc1nccs1)C(c1ccccc1)n1cc2ccccc2n1` (racemic) [Example 2, (2RS)-2-Indazol-2-yl-2-phenyl-N-thiazol-2-yl-acetamide] was run?
Its IC50 is 77 nM.

For `Nc1ccc2cn(C(C(=O)Nc3nccs3)c3ccccc3)nc2c1` (racemic) [Example 3, (2RS)-2-(6-Aminoindazol-2-yl)-2-phenyl-N-thiazol-2-yl-acetamide], which IC50 is on record?
The IC50 was 499 nM.

Which IC50 does the source give for `COc1ccc2cn(C(C(=O)Nc3nccs3)c3ccccc3)nc2c1` (racemic) [Example 4, (2RS)-2-(6-Methoxyindazol-2-yl)-2-phenyl-N-thiazol-2-yl-acetamide] here?
The IC50 was 537 nM.

How did the IC50 turn out when `O=C(Nc1nccs1)C(c1ccccc1)n1cc2ccc(O)cc2n1` (racemic) [Example 5, (2RS)-2-(6-Hydroxyindazol-2-yl)-2-phenyl-N-thiazol-2-yl-acetamide] was run?
The IC50 was 199 nM.

Which IC50 does the source give for `O=C(Nc1nccs1)C(c1cc(F)ccc1O)n1cc2ccccc2n1` (racemic) [Example 6, (2RS)-2-(5-Fluoro-2-hydroxy-phenyl)-2-indazol-2-yl-N-thiazol-2-yl-acetamide] here?
Its IC50 is 57 nM.

With `Nc1ccc(C#Cc2ccc3cn(C(C(=O)Nc4ccccn4)c4cc(F)ccc4O)nc3c2F)cn1` (racemic) [Example 7, (2RS)-2-[6-[2-(6-Amino-3-pyridyl)ethynyl]-7-fluoro-indazol-2-yl]-2-(5-fluoro-2-hydroxy-phenyl)-N-(2-pyridyl)acetamide] as the compound, how does the IC50 read?
The IC50 was 7 nM.

Which IC50 does the source give for `O=C(Nc1nccs1)C(c1ccccc1)n1cc2ccc(-c3ccc(N4CCNCC4)nc3)c(Cl)c2n1` (racemic) [Example 8, (2RS)-2-[7-Chloro-6-(6-piperazin-1-yl-3-pyridyl)indazol-2-yl]-2-phenyl-N-thiazol-2-yl-acetamide] here?
The IC50 was 32 nM.

For `O=C(Nc1ccccn1)C(c1ccccc1)n1cc2ccc(-c3ccc(N4CCNCC4)nc3)c(F)c2n1` (racemic) [Example 9, (2RS)-2-[7-Fluoro-6-(6-piperazin-1-yl-3-pyridyl)indazol-2-yl]-2-phenyl-N-(2-pyridyl)acetamide], which IC50 is on record?
The IC50 was 127 nM.

For `Nc1ccc(C#Cc2ccc3cn(C(C(=O)Nc4nccs4)c4ccccc4)nc3c2F)cn1` (racemic) [Example 11, (2RS)-2-[6-[2-(6-Amino-3-pyridyl)ethynyl]-7-fluoro-indazol-2-yl]-2-phenyl-N-thiazol-2-yl-acetamide], which IC50 is on record?
The IC50 was 52 nM.

`O=C(Nc1nccs1)C(c1ccccc1)n1cc2ccc(-c3ccc(N4CCNCC4)nc3)c(F)c2n1` (racemic) [Example 12, (2RS)-2-[7-Fluoro-6-(6-piperazin-1-yl-3-pyridyl)indazol-2-yl]-2-phenyl-N-thiazol-2-yl-acetamide hydrochloride] was tested. Which IC50 did it give?
The IC50 was 31 nM.

Which IC50 does the source give for `CCN1CCN(c2ccc(-c3ccc4cn(C(C(=O)Nc5nccs5)c5cccc(F)c5)nc4c3)cn2)CC1` (racemic) [Example 13, (2RS)-2-[6-[6-(4-Ethylpiperazin-1-yl)-3-pyridyl]indazol-2-yl]-2-(3-fluorophenyl)-N-thiazol-2-yl-acetamide] here?
Its IC50 is 144 nM.

`O=C(Nc1nccs1)C(c1cccc(F)c1)n1cc2ccc(C#Cc3cccnc3)cc2n1` (racemic) [Example 14, (2RS)-2-(3-Fluorophenyl)-2-[6-[2-(3-pyridyl)ethynyl]indazol-2-yl]-N-thiazol-2-yl-acetamide] was tested. Which IC50 did it give?
The IC50 was 22 nM.

Which IC50 does the source give for `O=C(Nc1nccs1)C(c1cc(F)ccc1O)n1cc2cccc(Br)c2n1` (racemic) [Example 15, (2RS)-2-(7-Bromoindazol-2-yl)-2-(5-fluoro-2-hydroxy-phenyl)-N-thiazol-2-yl-acetamide] here?
The IC50 was 1 nM.

With `O=C(Nc1nccs1)C(c1cc(F)ccc1O)n1cc2cccc(-c3ccccc3)c2n1` (racemic) [Example 16, (2RS)-2-(5-Fluoro-2-hydroxy-phenyl)-2-(7-phenylindazol-2-yl)-N-thiazol-2-yl-acetamide] as the compound, how does the IC50 read?
Its IC50 is 55 nM.

For `O=C(Nc1nccs1)C(c1cc(F)ccc1O)n1cc2cccc(N3CCOCC3)c2n1` (racemic) [Example 17, (2RS)-2-(5-Fluoro-2-hydroxy-phenyl)-2-(7-morpholinoindazol-2-yl)-N-thiazol-2-yl-acetamide], which IC50 is on record?
Its IC50 is 60 nM.

How did the IC50 turn out when `O=C(Nc1nccs1)C(c1cc(F)ccc1O)n1cc2ccc(Br)cc2n1` (racemic) [Example 18, (2RS)-2-(6-Bromoindazol-2-yl)-2-(5-fluoro-2-hydroxy-phenyl)-N-thiazol-2-yl-acetamide] was run?
The IC50 was 43 nM.

`O=C(Nc1nccs1)C(c1cc(F)ccc1O)n1cc2ccc(-c3ccccc3)cc2n1` (racemic) [Example 19, (2RS)-2-(5-Fluoro-2-hydroxy-phenyl)-2-(6-phenylindazol-2-yl)-N-thiazol-2-yl-acetamide] was tested. Which IC50 did it give?
The IC50 was 33 nM.

`O=C(Nc1nccs1)C(c1ccccc1)n1cc2ccc(-c3ccc(N4CCNCC4)nc3)cc2n1` (racemic) [Example 20, (2RS)-2-Phenyl-2-[6-(6-piperazin-1-yl-3-pyridyl)indazol-2-yl]-N-thiazol-2-yl-acetamide hydrochloride] was tested. Which IC50 did it give?
Its IC50 is 39 nM.
